The text below walks through data of US6391878B2, “Guanidinyl heterocycle compounds useful as alpha-2 adrenoceptor agonists” (The Procter & Gamble Company, priority 1996, dated 2002).

The test system of test [1] is patient with nasal congestion. The test is described as follows: Composition given to a patient with nasal congestion. It counts as in vivo, human. As for the experimental part: One tablet is swallowed by a patient with nasal congestion.
One tablet is chewed and swallowed by a patient with nasal congestion.
One tablet is placed under the tongue of a patient with nasal congestion and allowed to dissolve.
One-tenth of a mL of the composition is sprayed from a pump actuator into each nostril of a patient with nasal congestion.
One-fifth of a mL of the composition is applied as drops from a dropper into each nostril of a patient with riasal congestion.
One 15 mL dose of the alcohol-free liquid medication is swallowed by a patient with nasal congestion.

The next test has as its system patient with glaucoma. The experiment in a line: Topical ophthalmic composition given to a patient with glaucoma, intraocular pressure. It counts as in vivo, human. The following applies: Example G topical ophthalmic composition 0.10 % w/v, one-tenth of a mL into each eye. The procedure: One-tenth of a mL of the composition is administered directly into each eye of a patient with glaucoma.

For test [2], the system named is patient with nasal congestion and runny nose due to allergic rhinitis. The experiment in a line: Oral liquid given to a patient with nasal congestion and runny nose due to allergic rhinitis. It counts as in vivo, human. The settings on record: Example H oral liquid, 15 mg per 15 mL dose, with chlorpheniramine maleate 4 mg, one dose swallowed. As for the experimental part: One 15 mL dose of the liquid composition is swallowed by a patient with nasal congestion and runny nose due to allergic rhinitis.

The subject of another test is patient with asthma. The experiment in a line: Inhalation aerosol given to a patient with asthma. The settings on record: Example F inhalation aerosol 5.0 % w/v, two puffs from a metered-dose inhaler. It counts as in vivo, human. The text has this:
Two-puffs of the aerosol composition is inhaled from a metered-dose inhaler by a patient with asthma.

Another test deals with patient with migraine. The experiment in a line: Oral tablet given to a patient with migraine. It counts as in vivo, human. The settings on record: Example K oral tablet, 4 mg per tablet, one tablet swallowed. The text has this:
One tablet is swallowed by a patient with migraine.

Test [3] has as its system human subject suffering from septic or cardiogenic shock. The experiment in a line: Intravenous solution given to a human subject suffering from septic or cardiogenic shock. It counts as in vivo. The following applies: Example T parenteral solution 10 mg/ml carrier, approximately 2.0 ml intravenously. The procedure:
The above ingredients are mixed, forming a solution. Approximately 2.0 ml of the solution is administered, intravenously, to a human subject suffering from septic or cardiogenic shock. The symptoms subside.

Each structure is given as a SMILES string.

`N=C(N)Nc1ccc2nc[nH]c2c1Br` [Subject Compound 5, (4-Bromobenzimidazol-5-yl)guanidine]: the nasal congestion entry in test [1] (Example C sublingual tablet, 2.00 mg per tablet, dissolved under the tongue) is “rapidly and substantially diminished”. In addition, the intraocular pressure entry with patient with glaucoma is recorded as “substantially reduced”.

On to `Cc1nc2c(C)c(NC(=N)N)ccc2[nH]1` [Subject Compound 3, (2,4-Dimethylbenzimidazol-5-yl)quanidine], for which the nasal congestion entry in test [1] (Example D intranasal solution 0.20 % w/v, one-tenth of a mL sprayed into each nostril) is “substantially diminished”.

With `Cc1c(NC(=N)N)ccc2c1ncn2C` [Subject Compound 4, (1,4-Dimethylbenzimidazol-5-yl)quanidine], in test [1] (Example A oral tablet, 20.0 mg per tablet, one tablet swallowed), the nasal congestion result is “substantially diminished”. In test [2], the “congestion and runny nose” value is reported as “effectively reduced”.

As to `Cc1cc(NC(=N)N)c(C)c2[nH]cnc12` [Subject Compound 2, (4,7-Dimethylbenzimidazol-5-yl)guanidine], in test [1] (Example J alcohol-free oral liquid, 30 mg per 15 mL dose, one dose swallowed), the nasal congestion entry is listed as “substantially diminished”. In the test on patient with asthma, the asthmatic condition result is recorded as “effectively relieved”.

Regarding `Cc1c(NC(=N)N)ccc2nc[nH]c12` [Subject Compound 1, (4-Methylbenzimidazol-5-yl)guanidine], the nasal congestion result was “substantially reduced” in test [1] (Example B chewable tablet, 15.0 mg per tablet, one tablet chewed and swallowed); “substantially reduced” in test [1] (Example E intranasal gel 0.10 % w/v, one-fifth of a mL as drops into each nostril). In addition, the “pain and aura of migraine” value in the test with patient with migraine is reported as “substantially diminished”. In addition, in test [3], the “symptoms of septic or cardiogenic shock” value is “subside”.
